Data published in patent US20100113465A1, “7-AZASPIRO[3.5]NONANE-7-CARBOXAMIDE COMPOUNDS” (Pfizer Inc., priority 2008, published 2010).

How the values were obtained:
[1] = target: T1, human FAAH (Homo sapiens, UniProt O00519); assay: FAAH assay, human FAAH enzyme inhibition (kinact/Ki); format: biochemical; details: oleamide substrate 50 μM, 30° C., read-out: hFAAH kinact/Ki
T1 construct: made in house; host or cells: E. coli
T1 sequence (O00519 1-579): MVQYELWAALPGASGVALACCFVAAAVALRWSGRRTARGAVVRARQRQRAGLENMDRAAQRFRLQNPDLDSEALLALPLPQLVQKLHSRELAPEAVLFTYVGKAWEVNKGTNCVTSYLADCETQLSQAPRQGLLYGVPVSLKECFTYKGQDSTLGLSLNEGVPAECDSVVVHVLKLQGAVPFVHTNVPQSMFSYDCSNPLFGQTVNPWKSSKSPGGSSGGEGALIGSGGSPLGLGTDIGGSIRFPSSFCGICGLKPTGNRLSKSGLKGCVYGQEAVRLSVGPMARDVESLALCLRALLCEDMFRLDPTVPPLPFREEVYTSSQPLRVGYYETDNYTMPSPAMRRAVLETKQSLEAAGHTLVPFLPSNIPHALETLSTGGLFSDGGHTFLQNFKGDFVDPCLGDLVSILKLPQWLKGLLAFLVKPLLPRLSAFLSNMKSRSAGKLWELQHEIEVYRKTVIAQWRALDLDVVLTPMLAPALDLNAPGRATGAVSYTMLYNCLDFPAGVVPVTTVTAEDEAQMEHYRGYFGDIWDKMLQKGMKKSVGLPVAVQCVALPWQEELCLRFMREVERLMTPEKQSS
Procedure: (§1) The FAAH assay was carried out in 384-well clear polystyrene plates (Evergreen Scientific) in a total volume of 50 μl per well in a manner similar to that described by Mileni et al., Proc. Nat. Acad. Sci. 2008, 105, 12820-12824. All percents are by volume. Serial dilutions of compound were initially prepared in 100% DMSO, and then diluted two-fold into HPLC-grade H2O to give 50% DMSO. To each well, was placed the reaction mixture (40 μl) containing 1-4 nM FAAH, 50 mM NaPi, pH 7.4, 3 mM α-ketoglutarate, 0.15 mM NADH, 7.5 U/ml glutamate dehydrogenase, 2 mM ADP, 1 mM EDTA, and 0.1% Triton X-100 (The concentration shown for each component is the final concentration in the assay). To this mixture, was added 5 μl of a compound of Examples 1 to 56 at various concentrations in 50% DMSO (or 5 μl 50% DMSO for controls). This was immediately followed by the addition of 5 μl oleamide (500 μM) dissolved in 75% EtOH/25% DMSO and the reaction mixture was mixed for 1.5 min. The final concentrations of DMSO and EtOH in the assay were each 7.5%. The reactions were incubated at 30° C. and the absorbance at 340 nm was collected over a period of 90 min with readings taken in 30-second intervals using SpectraMax Plus^384 Microplate Spectrophotometer (Molecular Devices, Sunnyvale, Calif.). The human FAAH and rat FAAH used in the assay was prepared as described in the patent application WO 2006/067613 using wild-type E. coli cells transformed in St. Louis, Mo., U.S.A. The purity of the enzyme was greater than 98% based on an analysis by SDS-polyacrylamide gel electrophoresis followed by Coomassie Blue staining.
(§2) Reaction progress curves were corrected for the non-enzymatic oxidation of NADH by subtraction of absorbancies at each time point obtained from control reactions containing no FAAH enzyme. The loss of enzyme activity as a function of time is well-described by the following mathematical equation (1) for a mono-exponential decay: […]
(§3) where At represents the absorbance at time t, A0 represents the absorbance at time zero, and C represents a constant. Observed rates of enzyme inactivation (kobs) were determined from the non-linear reaction progress curves by fitting the corrected absorbancies to an equation for a mono-exponential decay using the third-party Microsoft Excel plug-in, XLfit (IDBS Limited). Secondary plots of kobs vs. inhibitor concentration were prepared from kobs values obtained from progress curves. Second-order rates for enzyme inactivation, expressed as kinact/Ki (M^−1s^−1), were calculated from the slopes from linear regression analysis of the secondary plot of kobs vs. inhibitor concentration as defined in following equation (2), where [I]<<Ki:
(§4) The concentration of substrate in the assay was equal to the Km for oleamide of 50 μM. Therefore, reported kinact/Ki values are obtained by multiplying resulting slopes by a factor of two (i.e. slope=kinact/(Ki*2)).

[2] = target: T2, rat FAAH (Rattus norvegicus, UniProt P97612); assay: FAAH assay, rat FAAH enzyme inhibition (kinact/Ki); format: biochemical; details: oleamide substrate 50 μM, 30° C., read-out: rFAAH kinact/Ki
T2 construct: made in house; host or cells: E. coli
T2 sequence (P97612 1-579): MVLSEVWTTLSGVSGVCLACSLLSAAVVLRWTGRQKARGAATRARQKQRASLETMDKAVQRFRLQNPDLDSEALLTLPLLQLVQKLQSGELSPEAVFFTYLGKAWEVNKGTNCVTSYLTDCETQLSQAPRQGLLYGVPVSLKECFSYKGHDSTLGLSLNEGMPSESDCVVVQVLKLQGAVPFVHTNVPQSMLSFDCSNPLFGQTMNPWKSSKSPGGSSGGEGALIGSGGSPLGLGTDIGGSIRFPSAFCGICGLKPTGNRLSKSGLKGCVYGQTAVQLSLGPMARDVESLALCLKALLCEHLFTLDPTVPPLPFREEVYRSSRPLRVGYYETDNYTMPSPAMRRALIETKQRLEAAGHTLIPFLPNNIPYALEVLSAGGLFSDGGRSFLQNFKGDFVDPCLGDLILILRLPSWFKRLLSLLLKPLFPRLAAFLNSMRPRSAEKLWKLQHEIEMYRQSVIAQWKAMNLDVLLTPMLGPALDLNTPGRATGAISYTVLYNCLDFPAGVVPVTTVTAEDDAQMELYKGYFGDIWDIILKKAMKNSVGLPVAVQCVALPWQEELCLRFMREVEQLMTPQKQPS
Procedure: as §1, §2, §3, §4

[3] = tested on: Male Sprague-Dawley Rats; assay: In vivo Complete Freund's Adjuvant (CFA) efficacy assay; design: species or system rat; key: (+) indicates the test compound was determined to be efficacious at 3 mpk, oral dosing; (−) indicates the test compound was determined to not be efficacious at 3 mpk, oral dosing; details: 3 mpk, oral dosing; inhibition of allodynia (PWT) four hours postdose vs vehicle, p<0.05
Procedure: For additional information on the CFA efficacy assay, see Jayamanne et al., Brit. J. Pharmacol. 2006, 147, 281-288. Experiments were performed on adult Male Sprague-Dawley Rats (200 g-250 g). Inflammation was induced in the left hindpaw of the rat by an intra-plantar injection of 150 uL Complete Freund's Adjuvant (CFA) (SIGMA F5881). The CFA injection immediately induces local inflammation, paw swelling, and pain that persists for at least two weeks post-injection. Baseline paw withdrawal threshold (PWT) was measured to determine the percent inhibition of allodynia using a set of Von Frey Hairs on day 4 post injection as illustrated by the Dixon Up and Down Method (W. J. Dixon, Ann. Rev. Pharmacol. Toxicol. 1980, 20:441-462). […] Test compound was administered at a concentration of 3 mg/kg (mpk) orally with the dosing vehicle 5% N,N′-Dimethylacetamide (SIGMA D137510) and 95% (40% 2-hydroxypropyl-beta-cyclodextrin in water) (SIGMA H107). Following Dose administration PWT threshold was evaluated again at four hours postdose. The Sprague-Dawley rats used in this assay were purchased from Harlan, 8520 Allison Pointe Blvd., Indianapolis, Ind., 46250, U.S.A. Sprague-Dawley rats are an outbred breed of albino rats first produced by the Sprague Dawley farms in Madison, Wis., U.S.A.
Percent Inhibition of Allodynia was determined by the formula: […]
ΔPWT measurements were averaged for each treatment group and statistical comparisons between groups were made using ANOVA and Dunnett's two-tailed test. […]

Row | kinact/KI [1] [M⁻¹ s⁻¹] | kinact/KI [2] [M⁻¹ s⁻¹] | Structure (SMILES) | CFA Efficacy [3]
1 | 16300 | 5940 | Cn1nnnc1NC(=O)N1CCC2(CC1)CC(c1ccc(F)c(Cl)c1)C2 [Example 48, 2-(3-chloro-4-fluorophenyl)-N-(1-methyl-1H-tetrazol-5-yl)-7-azaspiro[3.5]nonane-7-carboxamide] | (+)
2 | 3840 | 2470 | Cc1noc(NC(=O)N2CCC3(CC2)CC(c2cccc(Cl)c2F)C3)c1C [Example 29, 2-(3-chloro-2-fluorophenyl)-N-(3,4-dimethylisoxazol-5-yl)-7-azaspiro[3.5]nonane-7-carboxamide] | (+)
3 | 16700 | 3530 | Cn1nnnc1NC(=O)N1CCC2(CC1)CC(c1noc(-c3ccc(OC(F)(F)F)cc3)n1)C2 [Example 50, N-(1-methyl-1H-tetrazol-5-yl)-2-{5-[4-(trifluoromethoxy)phenyl]-1,2,4-oxadiazol-3-yl}-7-azaspiro[3.5]nonane-7-carboxamide] | (+)
4 | 2860 | 2340 | Cc1noc(NC(=O)N2CCC3(CC2)CC(c2cccc(OCCOc4ccc(Cl)cc4)c2)C3)c1C [Example 25, 2-{3-[2-(4-chlorophenoxy)ethoxy]phenyl}-N-(3,4-dimethylisoxazol-5-yl)-7-azaspiro[3.5]nonane-7-carboxamide] | (+)
5 | 12400 | 5750 | Cn1nnnc1NC(=O)N1CCC2(CC1)CC(c1cccc(C(F)(F)F)c1)C2 [Example 24, N-(1-methyl-1H-tetrazol-5-yl)-2-[3-(trifluoromethyl)phenyl]-7-azaspiro[3.5]nonane-7-carboxamide] | (+)
6 | 14100 | 3410 | Cn1nnnc1NC(=O)N1CCC2(CC1)CC(c1cccc(Cl)c1F)C2 [Example 46, 2-(3-chloro-2-fluorophenyl)-N-(1-methyl-1H-tetrazol-5-yl)-7-azaspiro[3.5]nonane-7-carboxamide] | (+)
7 | 3950 | 2990 | Cc1cc(C2CC3(CCN(C(=O)Nc4onc(C)c4C)CC3)C2)ccc1F [Example 12, N-(3,4-dimethylisoxazol-5-yl)-2-(4-fluoro-3-methylphenyl)-7-azaspiro[3.5]nonane-7-carboxamide] | (+)
8 | 4190 | 5820 | Cc1noc(NC(=O)N2CCC3(CC2)CC(c2ccc(F)c(Cl)c2)C3)c1C [Example 14, 2-(3-chloro-4-fluorophenyl)-N-(3,4-dimethylisoxazol-5-yl)-7-azaspiro[3.5]nonane-7-carboxamide] | (+)
9 | 2030 | 1160 | Cc1noc(NC(=O)N2CCC3(CC2)CC(c2csc(-c4cccc(C(F)(F)F)c4)n2)C3)c1C [Example 36, N-(3,4-dimethylisoxazol-5-yl)-2-{2-[3-(trifluoromethyl)phenyl]-1,3-thiazol-4-yl}-7-azaspiro[3.5]nonane-7-carboxamide] | (+)
10 | 2700 | 1510 | Cc1noc(NC(=O)N2CCC3(CC2)CC(c2cc(Cl)ccc2F)C3)c1C [Example 21, 2-(5-chloro-2-fluorophenyl)-N-(3,4-dimethylisoxazol-5-yl)-7-azaspiro[3.5]nonane-7-carboxamide] | (+)
11 | 2830 | 1320 | Cc1noc(NC(=O)N2CCC3(CC2)CC(F)(c2cccc(Cl)c2)C3)c1C [Example 32, 2-(3-chlorophenyl)-N-(3,4-dimethylisoxazol-5-yl)-2-fluoro-7-azaspiro[3.5]nonane-7-carboxamide] | (+)
12 | 4550 | 3470 | Cc1noc(NC(=O)N2CCC3(CC2)CC(c2ccc(Cl)c(Cl)c2)C3)c1C [Example 20, 2-(3,4-dichlorophenyl)-N-(3,4-dimethylisoxazol-5-yl)-7-azaspiro[3.5]nonane-7-carboxamide] | (+)
13 | 2820 | 1710 | Cc1noc(NC(=O)N2CCC3(CC2)CC(F)(c2cccc(OC(F)(F)F)c2)C3)c1C [Example 23, N-(3,4-dimethylisoxazol-5-yl)-2-fluoro-2-[3-(trifluoromethoxy)phenyl]-7-azaspiro[3.5]nonane-7-carboxamide] | (+)
14 | 6940 | 3420 | CCn1nnnc1NC(=O)N1CCC2(CC1)CC(c1cccc(OC(F)(F)F)c1)C2 [Example 52, N-(1-ethyl-1H-tetrazol-5-yl)-2-[3-(trifluoromethoxy)phenyl]-7-azaspiro[3.5]nonane-7-carboxamide] | 
15 | 354 | 405 | Cc1noc(NC(=O)N2CCC3(CC2)CC(c2ccc(F)c(Cl)c2)C3C)c1C (stereo not shown) [Example 41, 2-(3-chloro-4-fluorophenyl)-N-(3,4-dimethylisoxazol-5-yl)-1-methyl-7-azaspiro[3.5]nonane-7-carboxamide] | 
